Tests used:
Format in all cases: in vivo
[1] = tested on: grass (a European grass: bent grass); assay: Effects of proline, glutamine, arginine and urea on hydroponic cultivation of grass; details: for Average leaf length / Average root length / Number of leaves per one root / Number of tillering per one root / Total weight of living plants per five roots / number of leaves and total weight of the living plant, in words: 40th day; for Average leaf length / Average root length / Number of leaves per one root / Number of tillering per one root / Total weight of living plants per five roots: 5 roots per group, proline 20 ppm, others at the same nitrogen amount; for number of leaves and total weight of the living plant, in words: five average stocks per group
Method: Seedlings of grass (a European grass: bent grass) were raised and divided into five groups of A to E, and hydroponic cultivation was carried out (Table 2 shown below). Group A was the control. Concerning Group B, proline was applied onto leaf surfaces once a week in an amount of 20 ppm.
(§1) Furthermore, five average stocks which had not been withered were sampled from each group and examined.

[2] = tested on: lawn grass (a European grass; bent grass); assay: Effect of proline on hydroponic cultivation of lawn grass (1); details: for Average leaf length / Average root length / Number of leaves per one root / Number of tillering per one root / Total weight of living plants per five roots: 5 roots per group, inosine 2 ppm in hydroponic medium, proline 20 ppm onto leaf surfaces once a week; for tillering promotion (observation): confirmation on the 40th day, inosine 2 ppm in medium, proline 20 ppm foliar once a week
Method: Seedlings of grass (a European grass; bent grass) were raised and divided into four groups of A to D, and hydroponic cultivation was carried out (Table 1 shown below). Concerning Groups B and D, inosine was added to each hydroponic medium in such amount that the concentration became 2 ppm. Concerning Groups C and D, proline was applied onto leaf surfaces once a week in an amount of 20 ppm. Group A was the control. […] Furthermore, five average stocks which had not been withered were sampled from each group and examined.

[3] = tested on: grass (a European grass: bent grass); assay: Effect of proline on hydroponic cultivation of grass (2), proline concentration changed stepwise; details: 40th day
Method: Seedlings of grass (a European grass: bent grass) were raised and divided into six groups of A to F, and hydroponic cultivation was carried out (Table 3 shown below). At that time, inosine was added to the hydroponic media for all the groups in such amount that the concentration became 2 ppm in each hydroponic medium. Group A was the control. In the groups of B to F, proline was applied onto leaf surfaces once a week with the concentration being changed stepwise.
as §1

[4] = group B, 2 ppm, inosine 2 ppm in hydroponic medium of all groups, foliar once a week
[5] = 0.2% proline foliar once a week, inosine 2 ppm in hydroponic medium
[6] = 2.0% proline foliar once a week, inosine 2 ppm in hydroponic medium
[7] = 20 ppm proline foliar once a week, inosine 2 ppm in hydroponic medium
[8] = 200 ppm proline foliar once a week, inosine 2 ppm in hydroponic medium

SMILES: N=C(N)NCCC[C@H](N)C(=O)O [Arginine, arginine]
- Average leaf length ([1]; foliar once a week): 18 cm
- Average root length ([1]; foliar once a week): 2 cm
- Number of leaves per one root ([1]; foliar once a week): 9
- Number of tillering per one root ([1]; foliar once a week): 3
- Total weight of living plants per five roots ([1]; foliar once a week): 0.51 g
- number of leaves and total weight of the living plant, in words [1]: good results

SMILES: NC(N)=O [Urea, urea, reference compound]
- Average leaf length ([1]; foliar once a week): 15 cm
- Average root length ([1]; foliar once a week): 2 cm
- Number of leaves per one root ([1]; foliar once a week): 6
- Number of tillering per one root ([1]; foliar once a week): 1
- Total weight of living plants per five roots ([1]; foliar once a week): 0.34 g
- tillering promotion (observation) ([1]; confirmation on the 40th day, foliar once a week, nitrogen amount equal to 20 ppm proline): no tillering promotion was observed

SMILES: OC[C@H]1O[C@@H](n2cnc3c(O)ncnc32)[C@H](O)[C@@H]1O [Inosine, inosine]
- Average leaf length ([2]; 40th day): 20 cm
- Average root length ([2]; 40th day): 2 cm
- Number of leaves per one root ([2]; 40th day): 7
- Number of tillering per one root ([2]; 40th day): 2
- Total weight of living plants per five roots ([2]; 40th day): 0.40 g
- tillering promotion (observation) [2]: no tillering promotion was observed
- Average leaf length [3, 4]: 24 cm
- Average root length [3, 4]: 4 cm
- Number of leaves per one root [3, 4]: 14
- Number of tillering per one root [3, 4]: 3
- Total weight of living plants per five roots [3, 4]: 1.04 g

SMILES: O=C(O)[C@@H]1CCCN1 [Proline, proline]
- Average leaf length ([2]; 40th day): 22 cm
- Average root length ([2]; 40th day): 1 cm
- Number of leaves per one root ([2]; 40th day): 16
- Number of tillering per one root ([2]; 40th day): 5
- Total weight of living plants per five roots ([2]; 40th day): 0.53 g
- growth (root length, leaf length and number, total weight of the living plant, tillering number), in words ([2]; 40th day, five average stocks per group): good growth
- tillering promotion (observation) [2]: tillering promotion was clearly observed
- Average leaf length ([1]; foliar once a week): 14 cm
- Average root length ([1]; foliar once a week): 2 cm
- Number of leaves per one root ([1]; foliar once a week): 17
- Number of tillering per one root ([1]; foliar once a week): 5
- Total weight of living plants per five roots ([1]; foliar once a week): 0.60 g
- number of leaves and total weight of the living plant, in words [1]: good results
- Average leaf length [3, 5]: 23 cm
- Average root length [3, 5]: 5 cm
- Number of leaves per one root [3, 5]: 14
- Number of tillering per one root [3, 5]: 3
- Total weight of living plants per five roots [3, 5]: 0.90 g
- Average leaf length [3, 6]: 19 cm
- Average root length [3, 6]: 3 cm
- Number of leaves per one root [3, 6]: 11
- Number of tillering per one root [3, 6]: 3
- Total weight of living plants per five roots [3, 6]: 0.40 g
- Average leaf length [3, 7]: 24 cm
- Average root length [3, 7]: 4 cm
- Number of leaves per one root [3, 7]: 15
- Number of tillering per one root [3, 7]: 4
- Total weight of living plants per five roots [3, 7]: 0.95 g
- Average leaf length [3, 8]: 24 cm
- Average root length [3, 8]: 5 cm
- Number of leaves per one root [3, 8]: 24
- Number of tillering per one root [3, 8]: 4
- Total weight of living plants per five roots [3, 8]: 1.01 g
- inhibition of the growth or withering (observation) ([3]; Group F (2.0% proline foliar once a week), inosine 2 ppm in medium): inhibition of the growth or withering was observed
- number of leaves and total weight of the living plant, in words ([3]; proline at a concentration of 2 ppm to 0.2%, inosine 2 ppm in medium): good results

SMILES: NC(=O)CC[C@H](N)C(=O)O [Glutamine, glutamine]
- Average leaf length ([1]; foliar once a week): 18 cm
- Average root length ([1]; foliar once a week): 2 cm
- Number of leaves per one root ([1]; foliar once a week): 11
- Number of tillering per one root ([1]; foliar once a week): 3
- Total weight of living plants per five roots ([1]; foliar once a week): 0.66 g
- number of leaves and total weight of the living plant, in words [1]: good results
